Literature values in US20240335458A1, “OPHTHALMIC COMPOSITION FOR THE TREATMENT OF VISUAL DISORDERS” (FOODVICA, S.A. DE C.V., priority 2021, published 2024).

Assays:
[1] = tested on: sodium selenite-induced cataract
cataracts = conditions: 14 intravitreal injections of lanosterol nanoparticles (final dose 1.4 mg) plus 50 μL drops 3 times a day for 6 weeks, 7 dogs
[2] = tested on: protein aggregates obtained from surgically removed cataracts; conditions: 2 mg/ml protein aggregates, 10 µM and 200 μM, 6-day treatment at room temperature
rat lens opacities = conditions: 15 mM lanosterol in liposomes
[3] = tested on: age-related cataract human lens nuclei; conditions: 25 mM lanosterol solution, 6 days
[4] = tested on: natural cataract lens of rabbits; conditions: 25 mM lanosterol, 6 days

SMILES: COc1cc(/C=C/C(=O)CC(=O)/C=C/c2ccc(O)c(OC)c2)ccc1O [curcumin]
- Levels of lipid peroxidation, enzymatic and non-enzymatic antioxidants ([1]; curcumin 75 mg/kg body weight single dose, sodium selenite 15 μM/kg body weight): significant reduction
- aA- and aB-crystallin and Hsp 70 expression ([1]; selenite-induced cataractogenesis): suppressed aA- and aB-crystallin expression induced by selenite and Hsp 70

SMILES: CC(C)=CCC[C@@H](C)[C@H]1CC[C@@]2(C)C3=C(CC[C@]12C)[C@@]1(C)CC[C@H](O)C(C)(C)[C@@H]1CC3 [lanosterol]
- Reduction of cataract stage (cataracts): reduce up to two degrees the stage of cataracts
- Macroscopic clearing of protein aggregate solutions [2]: dramatically cleared the originally dark solutions in a dose-dependent way
- Reversal of lens opacities (rat lens opacities): failed to reverse the opacities or prevent progression
- Reversal of opacification of cataract nuclei [3]: did not reverse the opacification
- Lens clarity before and after treatment [4]: solid trend towards reduction of cataract severity

SMILES: C[C@H](CCCC(C)(C)O)[C@H]1CC[C@H]2[C@@H]3CC=C4C[C@@H](O)CC[C@]4(C)[C@H]3CC[C@]12C [25-hydroxycholesterol]
- Macroscopic clearing of protein aggregate solutions [2]: dramatically cleared the originally dark solutions in a dose-dependent way
